In PubChem BioAssay (NCI):
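In this assay, cells in 96-well plates receive the compound at five concentrations for 48 hours. Endpoints are linearly interpolated between the surrounding concentrations. GI50 marks 50% less growth. TGI: total growth inhibition.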

Legend:
Assay in all cases: NCI-60 cell line screen, 48 h
EKVX NSCLC = system: EKVX NSCLC
UACC-257 melanoma = system: UACC-257 melanoma
TK-10 renal = system: TK-10 renal
NCI-H23 lung = system: NCI-H23 lung
T-47D breast = system: T-47D breast
A549 NSCLC = system: A549 NSCLC
UACC-62 melanoma = system: UACC-62 melanoma
SK-MEL-2 melanoma = system: SK-MEL-2 melanoma
HT29 colon = system: HT29 colon
SF-295 CNS = system: SF-295 CNS

Compound | GI50 (EKVX NSCLC) | TGI (EKVX NSCLC) | GI50 (UACC-257 melanoma) | TGI (UACC-257 melanoma) | GI50 (TK-10 renal) | TGI (TK-10 renal) | GI50 (NCI-H23 lung) | TGI (NCI-H23 lung) | GI50 (T-47D breast) | TGI (T-47D breast) | GI50 (A549 NSCLC) | TGI (A549 NSCLC) | GI50 (UACC-62 melanoma) | TGI (UACC-62 melanoma) | GI50 (SK-MEL-2 melanoma) | TGI (SK-MEL-2 melanoma) | GI50 (HT29 colon) | TGI (HT29 colon) | GI50 (SF-295 CNS) | TGI (SF-295 CNS)
C=CCC(N[C@H](CO)C(C)C)c1cn(C(=O)OCC)c2ccccc12 (some centres not stated) | 22.9 µM | 77 µM | 18.3 µM | 44.2 µM | 13.7 µM | 44.1 µM | 19.1 µM | 49.3 µM | 39.9 µM | > 100 µM | 24.9 µM | 82 µM | 22.7 µM | 54.8 µM | 42.3 µM | > 100 µM | 36.1 µM | > 100 µM | 15.9 µM | 38.1 µM
CC1=C(C(=O)OCc2ccccc2)C(c2ccc3c(c2)OCO3)n2c(nc3ccccc32)N1 (configuration not stated) | 0.692 µM | > 100 µM |  | > 100 µM | > 100 µM | > 100 µM | > 56.4 µM | > 100 µM | 0.508 µM | > 100 µM | 0.69 µM | > 100 µM | 0.513 µM | > 100 µM |  | > 100 µM | 0.352 µM | > 100 µM | 0.321 µM | > 100 µM
Cn1c(=O)c2[nH]c(/N=N/N3CCN(CCO)CC3)nc2n(C)c1=O |  | > 100 µM |  | > 100 µM |  | > 100 µM |  | > 100 µM |  | > 100 µM |  | > 100 µM |  | > 100 µM |  | > 100 µM |  | > 100 µM |  | > 100 µM
O=c1cc(CNc2cc(F)cc(F)c2)c2ccc(I)cc2[nH]1 | 2.33 µM | > 100 µM | > 100 µM | > 100 µM | > 100 µM | > 100 µM | 6.36 µM | > 100 µM | 1.01 µM | > 100 µM | 0.707 µM | > 100 µM | 0.508 µM | > 100 µM | 1.44 µM | > 100 µM | 0.361 µM | > 100 µM | 0.441 µM | > 100 µM
CC(C)(C(=O)NN)c1ccccc1 |  | > 100 µM |  | > 100 µM |  | > 100 µM |  | > 100 µM |  | > 100 µM |  | > 100 µM |  | > 100 µM |  | > 100 µM |  | > 100 µM |  | > 100 µM
CC1Oc2cc3c(-c4c(O)cc(O)c5c(O)c6c(cc45)OC(C)C(C)C6=O)c(O)cc(O)c3c(O)c2C(=O)C1C (configuration not stated) |  | 0.711 µM |  | 1.68 µM |  | 5.45 µM |  | 0.756 µM |  | 1.41 µM |  | 1.29 µM |  | 1.34 µM |  | 0.331 µM |  | 0.397 µM |  | 0.49 µM
NC(=O)[C@H]1CCN(c2ncnc(N)c2F)C[C@@H]1N1CCC[C@@H](Nc2cc(Cl)cc(C(F)(F)F)c2)C1=O | 28.7 µM | 77.1 µM | 20.3 µM | 59.7 µM | 13.5 µM | 39 µM | 20.8 µM | 65.8 µM | 7.7 µM | 76 µM | 15.8 µM | > 100 µM | 13.9 µM | 29.5 µM | 19 µM | 41.5 µM | 5.29 µM | 55.1 µM | 17.1 µM | 41.8 µM
CCN(CC)CCOc1ccc(C(=C(C)c2ccc(Cl)cc2)c2ccc(OCCN(CC)CC)cc2)cc1 | 0.989 µM | 3.5 µM | 0.592 µM | 1.17 µM | 0.698 µM | 1.67 µM | 1.88 µM | 6.41 µM | 0.565 µM | 1.25 µM | 0.632 µM | 1.31 µM | 0.61 µM | 1.18 µM | 0.661 µM | 1.32 µM | 0.578 µM | 1.27 µM | 0.614 µM | 1.19 µM
N#CC(C#N)=Cc1ccc(-c2ccc(-c3nc4ccccc4s3)cc2)o1 | 25.7 µM | > 100 µM | 92.9 µM | > 100 µM | 17.2 µM | 36.9 µM | 15.6 µM | 43.3 µM | 4.46 µM | 38.2 µM | 14.3 µM | 38.5 µM | 21.7 µM | 70.3 µM | 63.2 µM | > 100 µM | 46 µM | > 100 µM | 20.7 µM | 46 µM
COc1ccc2c(c1)CCC1C2CCC2(C)C1CCC2(O)CNC(=O)CCCCC1CCSS1 (configuration not stated) | 48 µM | > 100 µM | 31.9 µM | > 100 µM | 17.7 µM | 57 µM | 20.8 µM | > 100 µM | 3.27 µM | 28.9 µM | 5.73 µM | > 100 µM | 13.9 µM | 49.4 µM | 33.2 µM | > 100 µM | 2.28 µM | 6.81 µM | 19.4 µM | 79.6 µM
CC1(C)CCC2(C(=O)OC3OC(CO)C(O)C(O)C3O)CC[C@]3(C)C(=CCC4C5(C)CC[C@H](OC6OC(C(=O)O)C(O)C(O)C6O)C(C)(C)C5CCC43C)C2C1 (some centres not stated) | 3.39 µM | 36.6 µM | 4.18 µM | 15.4 µM | 1.85 µM | 10.3 µM | 1.48 µM | 3.73 µM | 1.75 µM | 5.98 µM | 1.83 µM | 20.2 µM | 0.887 µM | 1.92 µM | 1.85 µM | 10.7 µM | 2.07 µM | > 50 µM | 2.56 µM | > 50 µM
Fc1ccc2[nH]cc(Cc3c[nH]c4ccc(F)cc34)c2c1 | 17.6 µM | 41.8 µM | 15.7 µM | 30.8 µM | 28.9 µM | 68.6 µM | 22.2 µM | 53.5 µM | 20 µM | 96.9 µM | 17.3 µM | 50.9 µM | 12 µM | 28.3 µM | 19.8 µM | 46.1 µM | 31.4 µM | > 100 µM | 20.6 µM | 47.9 µM
CC(=O)OC1c2ccccc2CC2(OC(C)=O)c3ccccc3C12 (configuration not stated) |  | > 100 µM |  | > 100 µM |  | > 100 µM |  | > 100 µM |  | > 100 µM |  | > 100 µM |  | > 100 µM |  | > 100 µM |  | > 100 µM |  | > 100 µM
O=C(CCN1CCCC1)Nc1ccc2c(NCc3ccc(F)cc3)c3ccccc3nc2c1 | 0.58 µM | 2.3 µM | 1.74 µM | 3.54 µM | 1.04 µM | 2.93 µM | 0.413 µM | 1.67 µM | 0.768 µM | 3.22 µM | 0.384 µM | 1.79 µM | 0.827 µM | 2.16 µM | 1.21 µM | 2.7 µM | 0.377 µM | 1.85 µM | 0.59 µM | 2.03 µM
Cc1ccc(C(=O)Nc2ccc(S(=O)(=O)O)c3cc(S(=O)(=O)O)cc(S(=O)(=O)O)c23)cc1NC(=O)c1cccc(N)c1 |  | > 100 µM |  | > 100 µM |  | > 100 µM |  | > 100 µM |  | > 100 µM |  | > 100 µM |  | > 100 µM |  | > 100 µM |  | > 100 µM |  | > 100 µM
O=C1c2ccccc2C(=O)N1CC1(C(=O)O)NCCS1(=O)=O (configuration not stated) |  | > 100 µM |  | > 100 µM |  | > 100 µM |  | > 100 µM |  | > 100 µM |  | > 100 µM |  | > 100 µM |  | > 100 µM |  | > 100 µM |  | > 100 µM
COc1cc2nc(Cl)nc(Nc3cccc(C(=O)/C=C/c4ccccc4)c3)c2cc1OC | > 33.7 µM | > 100 µM | > 31.2 µM | > 100 µM | 4.19 µM | 20 µM | 6.63 µM | > 100 µM | > 30.3 µM | > 100 µM | > 38.7 µM | > 100 µM | 2.55 µM | 10.1 µM | > 21 µM | > 75.9 µM | 4.39 µM | > 100 µM |  | > 44.2 µM
CSc1nnc(CCSc2ccnc3c(C(F)(F)F)cccc23)o1 | 9.21 µM | > 100 µM | > 100 µM | > 100 µM | 70.1 µM | > 100 µM | > 100 µM | > 100 µM | 24.9 µM | > 100 µM | > 100 µM | > 100 µM | > 100 µM | > 100 µM | > 100 µM | > 100 µM | > 100 µM | > 100 µM | 59.8 µM | > 100 µM
C[C@]12CC[C@H]3[C@@H](CCC4=CC(=O)CC[C@@H]43)[C@@H]1CC[C@@H]2OC(=O)N(CCCl)N=O | 3.67 µM | 36.6 µM | 10.7 µM | 24.8 µM | 11.1 µM | 43.8 µM | 5.1 µM | 33.7 µM | 3.52 µM | 29.3 µM | 0.393 µM | 14.8 µM | 0.413 µM | 18.1 µM | 3.07 µM | 28.6 µM | 3.7 µM | 13.7 µM | 0.121 µM | > 44.6 µM
